Measurements published in ChEMBL document CHEMBL1155248, “Structure-based shape pharmacophore modeling for the discovery of novel anesthetic compounds” (Bioorg Med Chem, 2009).

What was measured:
[1] = Binding affinity to apoferritin by isothermal titration calorimetry
[2] = Agonist activity at GABAA assessed as enhancement of channel current; format: functional

SMILES | pEC50 [1] | Kd [2]
CCc1cccc(CC)c1N=C=S | 4.8 | 
CCc1cccc(CC)c1N=C=O | 4.6 | 
CC(C)c1cc(O)c(O)c(C(C)C)c1 | 4.4 | 
CCc1cccc(CC)c1Br | 4.7 | 
CCC(C)c1ccc(O)c(C(C)CC)c1 (centres undefined) | 4.5 | 
Cc1cccc(C(C)(C)C)c1O | 6.3 | 
CCc1cccc(CC)c1O | 4.9 | 310 nM
CC(C)c1ccccc1O | 4.4 | 500 nM
Cc1cccc(C)c1O | 3.9 | 360 nM
CC(C)(C)c1cc(O)cc(C(C)(C)C)c1 | 4 | 
CCC(C)c1cccc(C(C)CC)c1O (centres undefined) | 5.6 | 
CC(C)c1cc(I)cc(C(C)C)c1O | 5 | 
Oc1ccccc1 [PHENOL] | 3 | 3800 nM
CC(C)c1cccc(C(C)C)c1O [PROPOFOL] | 5.7 | 230 nM
